Assay results as given in US20090221549A1, “ANTIHYPERTENSIVE THERAPY” (Gilead Colorado, Inc., priority 2006, published 2009).

Legend:
[1] = system: patients with moderate hypertension; conditions: 10 to 100 mg/day, no other antihypertensive drugs; cited from earlier work
[2] = system: patients with resistant hypertension; experiment: Safety and tolerability assessments in the clinical study; type: in vivo, human; conditions: for Treatment-emergent adverse events, Patients, %: n = 76
Description: (§1) In this randomized, double-blind, placebo-controlled, dose-titration study, patients were randomized 2:1 to receive escalating doses of darusentan or placebo once daily in the morning for 10 weeks after completing a 2-week placebo run-in period (FIG. 1). Darusentan was initiated at a dose of 10 mg/day and escalated every 2 weeks at doses of 50, 100 and 150 mg/day until reaching a maximum of 300 mg/day. […] Patients were withdrawn from the study if a subsequent dose reduction was required. After completion of the 10-week treatment period, patients were withdrawn from study medication over a maximum of 2 weeks. This study was approved by an Institutional Review Board/Independent Ethics Committee and conducted in accordance with the principles of Good Clinical Practices and the revised Declaration of Helsinki.
Physical examinations, vital sign measurements, clinical chemistry and hematologic laboratory tests, and electrocardiography were performed at the screening visit and periodically throughout the study. Blood samples were obtained at baseline and at weeks 4 and 10 during study drug treatment to monitor liver function. Additional blood samples were drawn from male patients at baseline and week 10 to assess follicle stimulating hormone, inhibin B, luteinizing hormone and testosterone levels. Male fertility was assessed by analysis of semen samples obtained within 2 weeks before baseline and within 2 weeks before week 10. Adverse events were monitored throughout the study.
(§2) A nonlinear mixed effect model was used for the analysis of change in blood pressure, with comorbidity status as a covariate. This model used all observed blood pressure measurements with no imputation for missing values. Linear contrast statements were used to test the slope through a given time point to test the effect of the dose administered on that week. Estimates of treatment effect were obtained via least square means. Response rates were compared with logistic regression models at each blood pressure measurement with comorbidity status as a covariate; missing values were imputed with last observation carried forward for these models. Safety summaries include all patients who received ≧1 dose of blinded study medication.

[3] = system: patients with resistant hypertension; experiment: Trough/peak sitting blood pressure by standard sphygmomanometry, randomized placebo-controlled dose-titration study; type: in vivo, human; conditions: for Percent of patients achieving SBP goal, Responders, n (%): n = 76
Description: In this randomized, double-blind, placebo-controlled, dose-titration study, 115 patients with resistant hypertension as defined by JNC 7 guidelines were randomized 2:1 to receive escalating doses of darusentan (10, 50, 100, 150 and 300 mg) or placebo once daily for 10 weeks. Darusentan dose was increased every 2 weeks.
Patients (35 to 85 years of age) with resistant hypertension as defined by the JNC 7 guidelines and who were treated with and adhered to full doses of JNC 7 recommended antihypertensives, including a diuretic and two or more antihypertensive medications from different drug classes, defined as (a) ACE inhibitors and angiotensin II receptor blockers, (b) beta-adrenergic receptor blockers, and (c) calcium channel blockers, were eligible to participate in the study. Patients also were required to have an estimated glomerular filtration rate (GFR) ≧30 mL/min/1.73 m^2 during the screening period. Women of childbearing potential were required to have a negative serum pregnancy test at the screening visit and a negative urine pregnancy test at baseline, and they must have agreed to use a reliable double-barrier method of contraception throughout the study and for at least 4 weeks after the last study visit. Patients with an average sitting SBP ≧180 mmHg, […], hemoglobin A1c >10%, hemoglobin concentration <10 g/dL, hematocrit <30%, serum thyroid stimulating hormone concentration >1.5× the upper limit of normal (ULN), or serum alanine aminotransferase (ALT) or aspartate aminotransferase (AST)>2×ULN during the screening period were excluded from the study. […] All patients provided written informed consent.
as §1
(§3) Co-primary efficacy endpoints were the changes from baseline through weeks 8 and 10 (i.e., doses of 150 and 300 mg) in trough sitting SBP. Blood pressure was measured at every study visit (baseline and weeks 2, 4, 6, 8 and 10) using standard sphygmomanometry. Secondary variables included 24-hour SBP as measured by ambulatory blood pressure monitoring (ABPM), percentage of patients who achieved SBP goal, trough sitting DBP, and urinary albumin to creatinine ratio. Ambulatory blood pressure monitoring was recorded once before randomization and repeated during the 24 hours immediately preceding the week 10 study visit. Urine samples for determination of albumin to creatinine ratio were collected at screening, baseline and week 10.
as §2, with “medication. […]” for “medication.”

[4] = system: patients with resistant hypertension; experiment: Urinary albumin to creatinine ratio (renal function); type: in vivo, human; conditions: for Albumin to creatinine ratio, % Change from baseline, Mean: week 10
Description: as §3

[5] = system: patients with resistant hypertension; experiment: 24-hour ambulatory blood pressure monitoring (ABPM) at week 10; type: in vivo, human
Description: as §1, §3
A nonlinear mixed effect model was used for the analysis of change in blood pressure, with comorbidity status as a covariate. This model used all observed blood pressure measurements with no imputation for missing values. Linear contrast statements were used to test the slope through a given time point to test the effect of the dose administered on that week. Estimates of treatment effect were obtained via least square means. […]

Q: What does the source list for `COc1cc(OC)nc(O[C@H](C(=O)O)C(OC)(c2ccccc2)c2ccccc2)n1` [Darusentan, (+)-(S)-2-[(4,6-dimethoxy-2-pyrimidinyl)oxy]-3-methoxy-3,3-diphenylpropionic acid]?
A: effect on SBP and DBP by comparison with placebo [1]: significantly reduce; patients with elevations in ALT or AST >2×ULN ([2]; 10-week treatment): no; Treatment-emergent adverse events, Patients, % ([2]; Arthralgia): (3) %; Treatment-emergent adverse events, Patients, % ([2]; Diarrhea): (1) %; Treatment-emergent adverse events, Patients, % ([2]; Dizziness): (7) %; Treatment-emergent adverse events, Patients, % ([2]; Gastroenteritis): (5) %; Treatment-emergent adverse events, Patients, % ([2]; Nasopharyngitis): (7) %; Treatment-emergent adverse events, Patients, % ([2]; Sinusitis): (8) %; Treatment-emergent adverse events, Patients, % ([2]; Upper respiratory tract infection): (5) %; patients with decrease in hematocrit reported as adverse event ([2]; all events mild): 2 patients; patients with decrease in hemoglobin reported as adverse event ([2]; all events mild): 2 patients; cases of severe peripheral edema ([2]; darusentan group): one case; serious adverse events considered related to study medication ([2]; darusentan group): None and no drug-related serious adverse events; improvements in trough sitting SBP and DBP, dose relation ([3]; 10 to 300 mg once daily, titrated every 2 weeks): dose dependent; Percent of patients achieving SBP goal, Responders, n (%) ([3]; Week 2 (10 mg)): 23 (30.3) n (%); Percent of patients achieving SBP goal, Responders, n (%) ([3]; Week 4 (50 mg)): 36 (47.4) n (%); Percent of patients achieving SBP goal, Responders, n (%) ([3]; Week 6 (100 mg)): 34 (44.7) n (%); Percent of patients achieving SBP goal, Responders, n (%) ([3]; Week 8 (150 mg)): 32 (42.1) n (%); Percent of patients achieving SBP goal, Responders, n (%) ([3]; Week 10 (300 mg)): 37 (48.7) n (%); patients achieving SBP goal (JNC 7) ([3]; end of treatment (week 10), placebo 28%): 49%; Geometric mean albumin to creatinine ratio, Week 10 ([4]; All observed patients, n 65, baseline 12.6): 9.4 mg/g; Albumin to creatinine ratio, % Change from baseline, Mean ([4]; All observed patients): −25.3%; Geometric mean albumin to creatinine ratio, Week 10 ([4]; Baseline ratio >30 mg/g, n 12, baseline 145.4): 73.6 mg/g; Albumin to creatinine ratio, % Change from baseline, Mean ([4]; Baseline ratio >30 mg/g): −49.4%; Geometric mean albumin to creatinine ratio, Week 10 ([4]; Baseline ratio ≦30 mg/g, n 53, baseline 7.2): 5.9 mg/g; Albumin to creatinine ratio, % Change from baseline, Mean ([4]; Baseline ratio ≦30 mg/g): −18.4%; placebo-adjusted reduction in mean 24-hour systolic ABP ([5]; 300 mg): 9.2±2.2 mmHg; decrease in day-time SBP (ABP) ([5]; placebo 2.2±2.4 mmHg): 10.9±1.4 mmHg; decrease in night-time SBP (ABP) ([5]; placebo 3.8±2.7 mmHg): 11.9±1.6 mmHg
